This experiment deals with human CXCR4 (Homo sapiens, UniProt P61073). The experiment can be described thus: CXCL12-AF647 competition binding on Jurkat cells, flow cytometry. As to conditions: competition with CXCL12-AF647, mean ± SD. A general note: A flow cytometer gives signals particle by particle.

Two molecules from paper PMC13516207 (Pharmaceuticals, 2026) can be followed below.

Molecules are shown by their SMILES. Bridge positions count the residues as written; N and C are the ends. Square brackets hold non-standard residues; d marks the D form. Side chains are listed from the residue outwards. Peptide text beside a SMILES is read from it. * marks the point of attachment. NOTA = O=C(O)CN1CCN(CC(=O)O)CCN(CC(=O)*)CC1; 2Nal = N[C@@H](Cc1ccc2ccccc2c1)C(=O)O; Lys(iPr) = CC(C)NCCCC[C@H](N)C(=O)O

Chain of human CXCR4 (P61073 whole entry): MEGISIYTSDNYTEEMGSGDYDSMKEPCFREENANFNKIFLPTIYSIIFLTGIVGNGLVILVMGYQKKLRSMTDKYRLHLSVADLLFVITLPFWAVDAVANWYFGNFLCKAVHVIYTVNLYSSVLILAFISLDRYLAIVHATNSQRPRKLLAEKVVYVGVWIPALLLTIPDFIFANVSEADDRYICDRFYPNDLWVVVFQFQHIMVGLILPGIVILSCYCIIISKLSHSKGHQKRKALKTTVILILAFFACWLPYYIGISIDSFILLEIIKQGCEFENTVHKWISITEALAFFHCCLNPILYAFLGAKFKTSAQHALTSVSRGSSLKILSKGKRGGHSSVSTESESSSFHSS
Method: Subsequently, 50 µL containing 0.25 × 10^6 Jurkat cells was added to each well, followed by 50 µL human CXCL12-AF647 (100 ng/mL; Almac, Craigavon, UK). Plates were incubated for 30 min at room temperature in the dark. After incubation, the cells were washed twice by centrifugation (400× g, 5 min) to replace the supernatant and subsequently fixed with 1% paraformaldehyde (Merck, Darmstadt, Germany). Fluorescence intensity was quantified by flow cytometry, and IC50 values were obtained by nonlinear regression analysis. All measurements were performed with at least four technical replicates.

As usually defined, the IC50 is the point on the concentration scale where inhibition reaches its midpoint. A lower IC50 goes with inhibition by little substance. Turning to `CC(C)NCCCC[C@H](NC(=O)[C@H]1CCC(=O)N[C@@H](Cc2ccccc2)C(=O)N[C@@H](Cc2ccc(O)cc2)C(=O)N[C@@H](CCCCNC(C)C)C(=O)N[C@H](CCCNC(=N)N)C(=O)N[C@@H](Cc2ccc3ccccc3c2)C(=O)NCC(=O)N1)C(N)=O` [LY2510924, cyclo[Phe-Tyr-Lys(iPr)-D-Arg-2-Nal-Gly-D-Glu]-Lys(iPr)-NH2] (FY[Lys(iPr)][dR][2Nal]G[dE][Lys(iPr)]-NH2; lactam N-7), the IC50 came out at 0.36 ± 0.07 nM.
As for `CC(C)NCCCC[C@@H]1NC(=O)[C@H](Cc2ccc(O)cc2)NC(=O)[C@H](Cc2ccccc2)NC(=O)CC[C@H](C(=O)N[C@@H](CCCCNC(C)C)C(=O)N[C@@H](CCCCNC(=O)[C@H](CCC(=O)O)NC(=O)[C@H](CCC(=O)O)NC(=O)[C@H](CCC(=O)O)NC(=O)CN2CCN(CC(=O)O)CCN(CC(=O)O)CC2)C(N)=O)NC(=O)CNC(=O)[C@H](Cc2ccc3ccccc3c2)NC(=O)[C@@H](CCCNC(=N)N)NC1=O` [[^natF]AlF-NOTA-SC] (FY[Lys(iPr)][dR][2Nal]G[dE][Lys(iPr)]K([Glu-Glu-Glu-NOTA])-NH2; lactam N-7), the IC50 is 14.4 ± 2.65 nM.
